Measurements taken from paper PMC6160570, “Maprotiline Prevents Monocrotaline-Induced Pulmonary Arterial Hypertension in Rats” (Frontiers in Pharmacology, 2018).
pKd: −log10 of the molar value. Where two headings read alike, the source gives them in different places.

Experiments:
[1] = biological target: T1, soluble guanylate cyclase (sGC), α1/β1 heterodimer (Homo sapiens, UniProt Q02108+Q02153); experiment: SPR (Biacore T200, sGC immobilized on CM5 chip), positive control; type: binding; parameters: gene GUCY1B1; full-length recombinant sGC (α1 and β1 subunits coexpressed in Sf9 cells); with sGC α1 subunit (GUCY1A1, Q02108)
T1 sequence (Q02153 1-619): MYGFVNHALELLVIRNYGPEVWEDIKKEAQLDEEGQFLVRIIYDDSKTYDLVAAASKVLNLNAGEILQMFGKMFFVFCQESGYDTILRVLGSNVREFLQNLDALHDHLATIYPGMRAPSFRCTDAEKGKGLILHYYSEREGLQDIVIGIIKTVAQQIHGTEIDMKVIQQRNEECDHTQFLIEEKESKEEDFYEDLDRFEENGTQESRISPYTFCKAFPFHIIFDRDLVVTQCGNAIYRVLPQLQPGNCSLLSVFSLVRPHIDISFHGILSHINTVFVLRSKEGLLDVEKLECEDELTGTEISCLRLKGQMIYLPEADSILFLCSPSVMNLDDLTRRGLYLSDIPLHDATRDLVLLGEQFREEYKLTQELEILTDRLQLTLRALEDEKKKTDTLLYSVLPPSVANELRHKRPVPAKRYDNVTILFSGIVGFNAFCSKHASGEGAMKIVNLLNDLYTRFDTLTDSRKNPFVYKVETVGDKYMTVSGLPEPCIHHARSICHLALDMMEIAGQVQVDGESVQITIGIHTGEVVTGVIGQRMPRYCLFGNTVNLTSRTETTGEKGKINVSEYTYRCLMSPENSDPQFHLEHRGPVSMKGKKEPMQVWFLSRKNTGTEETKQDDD
T1 sequence (Q02108 1-690): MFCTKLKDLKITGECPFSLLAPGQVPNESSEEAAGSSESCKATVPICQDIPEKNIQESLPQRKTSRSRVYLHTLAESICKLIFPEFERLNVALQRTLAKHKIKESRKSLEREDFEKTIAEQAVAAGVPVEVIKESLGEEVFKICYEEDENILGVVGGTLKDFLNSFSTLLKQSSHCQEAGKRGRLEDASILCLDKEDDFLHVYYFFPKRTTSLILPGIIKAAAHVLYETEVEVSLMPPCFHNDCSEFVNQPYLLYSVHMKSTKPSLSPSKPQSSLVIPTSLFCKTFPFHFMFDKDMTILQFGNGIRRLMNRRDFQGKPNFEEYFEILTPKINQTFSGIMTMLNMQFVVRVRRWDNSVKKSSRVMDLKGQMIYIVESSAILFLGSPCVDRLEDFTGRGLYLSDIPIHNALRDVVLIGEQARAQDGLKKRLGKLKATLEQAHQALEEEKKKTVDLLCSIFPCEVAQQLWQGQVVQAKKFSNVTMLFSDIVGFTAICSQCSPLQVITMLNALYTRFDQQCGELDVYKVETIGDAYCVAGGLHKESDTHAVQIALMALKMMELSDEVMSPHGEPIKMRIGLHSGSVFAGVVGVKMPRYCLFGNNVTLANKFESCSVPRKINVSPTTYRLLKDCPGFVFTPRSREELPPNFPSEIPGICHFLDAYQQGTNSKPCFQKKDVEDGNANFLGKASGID

[2] = biological target: T1, soluble guanylate cyclase (sGC), α1/β1 heterodimer; parameters: gene GUCY1B1

Row | Structure (SMILES) | pKd [1] | pKd [2]
1 | OCc1ccc(-c2nn(Cc3ccccc3)c3ccccc23)o1 [YC-1] | 5.66 | –
2 | CNCCCC12CCC(c3ccccc31)c1ccccc12 [maprotiline] | – | 6.51
